The results in this text go back to patent publication US20230103631A1, “PEPTIDES AS SELECTIVE GIP RECEPTOR AGONISTS” (Sanofi, priority 2020, published 2023).

*1 amine or outer side, *2 acyl side, *3 side chain or, on linkers, in order; H or OH if unused. Where a SMILES comes first, the peptide text is derived from it. Side-chain parts run from the residue outwards. [ ]: non-standard residue; d: D form. The star is where a group is joined. C20 diacid = O=C(O)CCCCCCCCCCCCCCCCCCC(=O)*; C18 diacid = O=C(O)CCCCCCCCCCCCCCCCC(=O)*; γGlu = O=C(O)[C@H](CCC(=O)[*:2])N[*:1]; NMeY = CN[C@@H](Cc1ccc(O)cc1)C(=O)O; AEEA = NCCOCCOCC(=O)O; Aib = CC(C)(N)C(=O)O

Data set [1] is described as follows: Chemical stability assessment (relative purity loss by UHPLC-UV). It counts as physicochemical. The settings on record: Chemical stability buffer system A: 20 mM phosphate buffer pH 7.4. The protocol: Purity of a peptide batch was determined through UHPLC/MS prior to chemical stability measurement. The target concentration was […] pure compound. Solutions from solid samples were prepared in the following buffer systems with a concentration of ˜300 μM compound based on the previously determined % purity:
Chemical stability buffer system A) 20 mM phosphate buffer pH 7.4,
Chemical stability buffer system B) 8 mM phosphate buffer pH 7.4, 14 mg/ml propylene glycol, 5.5 mg/ml phenol
Chemical stability buffer system C) 100 mM phosphate buffer pH 7.4, 2.7 mg/ml m-cresol
Prepared solutions were filtered through […] pore size and filled into sterilized glass containers under laminar flow conditions.
Glass containers were stored for 28 days at 5 and 40° C. After this time, the samples were centrifuged for 15 min at 2500 RCF. Then 1.5 μl of the undiluted supernatant were analysed with UHPLC-UV.
The chemical stability was rated through the relative loss of purity calculated by the equation:
[(purity after 28 days at 5° C.)−(purity after 28 days at 40° C.)]/(purity after 28 days at 5° C.)]*100%
The purity is calculated as
[(peak area peptide)/(total peak area)]*100%
The analytical methods used were Analytical UHPLC Method B or C.
Peptide samples were prepared in Chemical stability buffer system A or B and stability was assessed as described in Methods.

Data set [2] in a line: physchem. It counts as physicochemical. The settings on record: for Soluble amount: 24 h, pH 7.4; for solubility at 24 h: pH 7.4, Soluble amount. The method, boiled down:
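Peptide at 10 mg/ml (purity-corrected) in 100 mM phosphate pH 7.4, alone or with 2.7 mg/ml m-cresol; 1 h gentle agitation, then 24 h at 5 °C. Supernatant after 15 min at 2500 RCF quantified by UHPLC-UV against reference peptide, adjusted for extinction coefficients.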

Data set [3] concerns the target T1, human GIP receptor (Homo sapiens, UniProt P48546).
T1 construct: human adipocytes endogenously expressing the human GIP receptor; host or cells: human preadipocytes (Lonza) differentiated to adipocytes
T1 sequence (P48546 22-466): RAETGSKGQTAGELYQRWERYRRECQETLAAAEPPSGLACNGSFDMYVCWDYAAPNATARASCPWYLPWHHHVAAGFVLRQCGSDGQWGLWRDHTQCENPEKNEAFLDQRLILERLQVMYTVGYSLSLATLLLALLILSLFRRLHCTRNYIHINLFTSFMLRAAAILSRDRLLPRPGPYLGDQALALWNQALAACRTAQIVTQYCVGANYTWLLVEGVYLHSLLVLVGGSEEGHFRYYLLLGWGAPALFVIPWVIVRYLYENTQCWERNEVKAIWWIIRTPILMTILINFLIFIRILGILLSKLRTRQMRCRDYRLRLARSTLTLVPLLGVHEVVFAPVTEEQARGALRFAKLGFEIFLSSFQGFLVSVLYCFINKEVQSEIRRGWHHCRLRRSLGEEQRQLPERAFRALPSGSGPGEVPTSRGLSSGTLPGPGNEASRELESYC
The data set is described as follows: cAMP HTRF assay in human adipocytes endogenously expressing the human GIP receptor. In kind it is cell-based. The settings on record: for EC50: read-out: hGIPR EC50; for Emax: read-out: hGIPR Emax. As to the method: For this, one vial of human preadipocytes (˜10^6 cells; Lonza) was thawed in a T-75 cell culture dish.
After 3 days, the cells were washed with PBS and 1.5 ml Trypsin, incubated for 4 min, then resuspended in medium, centrifugated for 10 min @ 300 rcf RT, resuspended again and distributed to four T-75 cell culture dishes.
After 5 days, the cells were washed with PBS and 1.5 ml Trypsin, incubated for 4 min, then resuspended in medium, centrifugated for 10 min @ 300 rcf RT, resuspended again and sawn in T-75 dishes (2.5×10^6 cells per dish) in 15 ml Differentiation medium each.
After 6 days of differentiation, 5000 cells per well were dispensed on a 96-well plate (#CLS3694 from Corning®, Sigma-Aldrich). For measurement of cAMP generation, 25 μL of test compound was added to each well of the 96-well plate, followed by incubation for 30 min at room temperature.
The cAMP generated following test compound stimulation was determined using a kit from Cisbio Corp. based on HTRF (Homogenous Time Resolved Fluorescence). The cAMP assay was performed according to manufacturer's instructions (Cisbio).
The cAMP content of cells was determined using a kit from Cisbio Corp. based on HTRF (Homogenous Time Resolved Fluorescence).
A general note: Time-resolved FRET reads energy transfer from a long-lived donor to a nearby acceptor.

What is called solubility is how much of the substance goes into solution per volume. Read a high solubility as much dissolved substance. For orientation: EC50 means the concentration at which the effect is half-maximal. Broadly, the Emax is the greatest response seen or fitted, relative to the assay's reference. Consider `CC[C@H](C)[C@H](NC(=O)[C@H](CCCNC(=N)N)NC(=O)[C@H](CC(=O)O)NC(=O)[C@H](CCCCNC(=O)COCCOCCNC(=O)COCCOCCNC(=O)CC[C@H](NC(=O)CCCCCCCCCCCCCCCCCCC(=O)O)C(=O)O)NC(=O)C(C)(C)NC(=O)[C@@H](NC(=O)[C@H](CO)NC(=O)[C@H](CC(C)C)NC(=O)[C@H](CC(=O)O)NC(=O)[C@H](CO)NC(=O)[C@@H](NC(=O)[C@H](Cc1ccccc1)NC(=O)[C@@H](NC(=O)CNC(=O)[C@H](CCC(=O)O)NC(=O)C(C)(C)NC(=O)[C@@H](N)Cc1ccc(O)cc1)[C@@H](C)O)[C@@H](C)CC)[C@@H](C)CC)C(=O)N[C@@H](Cc1c[nH]cn1)C(=O)N[C@@H](CCC(N)=O)C(=O)NC(C)(C)C(=O)N[C@@H](CCC(=O)O)C(=O)N[C@@H](Cc1ccccc1)C(=O)N[C@H](C(=O)N[C@@H](CCC(=O)O)C(=O)N[C@@H](Cc1c[nH]c2ccccc12)C(=O)N[C@@H](CC(C)C)C(=O)N[C@@H](CC(C)C)C(=O)N[C@@H](C)C(=O)N[C@@H](CCC(N)=O)C(=O)NCC(=O)N1CCC[C@H]1C(=O)N[C@@H](CO)C(=O)N[C@@H](CO)C(=O)NCC(=O)N[C@@H](C)C(=O)N1CCC[C@H]1C(=O)N1CCC[C@H]1C(=O)N1CCC[C@H]1C(=O)N[C@@H](CO)C(N)=O)[C@@H](C)CC` [SEQ ID NO: 7, H2N-Y-Aib-E-G-T-F-I-S-D-I-S-I-Aib-K[{AEEA}2-gGlu-C20OH]-D-R-I-H-Q-Aib-E-F-I-E-W-I-L-A-Q-G-P-S-S-G-A-P-P-P-S-NH2] (H-Y[Aib]EGTFISDLSI[Aib]K([AEEA-AEEA-γGlu-C20 diacid])DRIHQ[Aib]EFIEWLLAQGPSSGAPPPS-NH2), for which the “Relative purity loss over 28 days at 40° C.” value (“Relative purity loss” for short) in data set [1] was 4.5%. In data set [2], this compound gave a Soluble amount of over 5.9 mg/mL and a solubility at 24 h of over 6900 µg/mL. Besides, in data set [3], the EC50 was 300 pM and the Emax turned out to be 121%.

With `CC[C@H](C)[C@H](NC(=O)[C@H](CCCNC(=N)N)NC(=O)[C@H](CC(=O)O)NC(=O)[C@H](CCCCNC(=O)COCCOCCNC(=O)COCCOCCNC(=O)CC[C@H](NC(=O)CCCCCCCCCCCCCCCCC(=O)O)C(=O)O)NC(=O)C(C)(C)NC(=O)[C@@H](NC(=O)[C@H](CO)NC(=O)[C@H](CC(C)C)NC(=O)[C@H](CC(=O)O)NC(=O)[C@H](CO)NC(=O)[C@@H](NC(=O)[C@H](Cc1ccccc1)NC(=O)[C@@H](NC(=O)CNC(=O)[C@H](CCC(=O)O)NC(=O)C(C)(C)NC(=O)[C@H](Cc1ccc(O)cc1)NC)[C@@H](C)O)[C@@H](C)CC)[C@@H](C)CC)C(=O)N[C@@H](Cc1c[nH]cn1)C(=O)N[C@@H](CCC(N)=O)C(=O)NC(C)(C)C(=O)N[C@@H](CCC(=O)O)C(=O)N[C@@H](Cc1ccccc1)C(=O)N[C@H](C(=O)N[C@@H](CCC(=O)O)C(=O)N[C@@H](Cc1c[nH]c2ccccc12)C(=O)N[C@@H](CC(C)C)C(=O)N[C@@H](CC(C)C)C(=O)N[C@@H](C)C(=O)N[C@@H](CCC(N)=O)C(=O)NCC(=O)N1CCC[C@H]1C(=O)N[C@@H](CO)C(=O)N[C@@H](CO)C(=O)NCC(=O)N[C@@H](C)C(=O)N1CCC[C@H]1C(=O)N1CCC[C@H]1C(=O)N1CCC[C@H]1C(=O)N[C@@H](CO)C(N)=O)[C@@H](C)CC` [SEQ ID NO: 8, MeHN-Y-Aib-E-G-T-F-I-S-D-I-S-I-Aib-K[{AEEA}2-gGlu-C180H]-D-R-I-H-Q-Aib-E-F--E-W-I-L-A-Q-G-P-S-S-G-A-P-P-P-S-NH2] (H-[NMeY][Aib]EGTFISDLSI[Aib]K([AEEA-AEEA-γGlu-C18 diacid])DRIHQ[Aib]EFIEWLLAQGPSSGAPPPS-NH2), the “Relative purity loss” value in data set [1] was 4.7%. In data set [2], this compound yielded a Soluble amount of over 6.4 mg/mL and a solubility at 24 h of over 7500 µg/mL. For the same compound, in data set [3], the EC50 is 500 pM and the Emax came to 116%.

Turning to `CC[C@H](C)[C@H](NC(=O)[C@H](Cc1ccccc1)NC(=O)[C@H](CCC(=O)O)NC(=O)[C@H](CCC(=O)O)NC(=O)[C@H](CCC(N)=O)NC(=O)[C@H](Cc1c[nH]cn1)NC(=O)[C@@H](NC(=O)[C@H](CCCNC(=N)N)NC(=O)[C@H](CC(=O)O)NC(=O)[C@H](CCCCNC(=O)COCCOCCNC(=O)COCCOCCNC(=O)CC[C@H](NC(=O)CCCCCCCCCCCCCCCCCCC(=O)O)C(=O)O)NC(=O)C(C)(C)NC(=O)[C@@H](NC(=O)[C@H](CO)NC(=O)[C@H](CC(C)C)NC(=O)[C@H](CC(=O)O)NC(=O)[C@H](CO)NC(=O)[C@@H](NC(=O)[C@H](Cc1ccccc1)NC(=O)[C@@H](NC(=O)CNC(=O)[C@H](CCC(=O)O)NC(=O)C(C)(C)NC(=O)[C@@H](N)Cc1ccc(O)cc1)[C@@H](C)O)[C@@H](C)CC)[C@@H](C)CC)[C@@H](C)CC)C(=O)N[C@@H](CCC(=O)O)C(=O)N[C@@H](Cc1c[nH]c2ccccc12)C(=O)N[C@@H](CC(C)C)C(=O)N[C@@H](CC(C)C)C(=O)N[C@@H](C)C(=O)N[C@@H](CCC(N)=O)C(=O)NCC(=O)N1CCC[C@H]1C(=O)N[C@@H](CO)C(=O)N[C@@H](CO)C(=O)NCC(=O)N[C@@H](C)C(=O)N1CCC[C@H]1C(=O)N1CCC[C@H]1C(=O)N1CCC[C@H]1C(=O)N[C@@H](CO)C(N)=O` [SEQ ID NO: 10, H2N-Y-Aib-E-G-T-F-I-S-D-I-S-I-Aib-K[{AEEA}2-gGlu-C20OH]-DRIHQEEFIEWILAQGPSSGAPPPS-NH2] (H-Y[Aib]EGTFISDLSI[Aib]K([AEEA-AEEA-γGlu-C20 diacid])DRIHQEEFIEWLLAQGPSSGAPPPS-NH2), the “Relative purity loss” value in data set [1] was determined as 3.3%. In data set [2], this compound yielded a Soluble amount of over 8.1 mg/mL and a solubility at 24 h of over 8000 µg/mL. In addition, the Emax in data set [3] was 127%.

With `CC[C@H](C)[C@H](NC(=O)[C@H](Cc1ccccc1)NC(=O)[C@H](CCC(=O)O)NC(=O)[C@H](CCC(=O)O)NC(=O)[C@H](CCC(N)=O)NC(=O)[C@H](Cc1c[nH]cn1)NC(=O)[C@@H](NC(=O)[C@H](CCCNC(=N)N)NC(=O)[C@H](CC(=O)O)NC(=O)[C@H](CCCCNC(=O)COCCOCCNC(=O)COCCOCCNC(=O)CC[C@H](NC(=O)CCCCCCCCCCCCCCCCC(=O)O)C(=O)O)NC(=O)C(C)(C)NC(=O)[C@@H](NC(=O)[C@H](CO)NC(=O)[C@H](CC(C)C)NC(=O)[C@H](CC(=O)O)NC(=O)[C@H](CO)NC(=O)[C@@H](NC(=O)[C@H](Cc1ccccc1)NC(=O)[C@@H](NC(=O)CNC(=O)[C@H](CCC(=O)O)NC(=O)C(C)(C)NC(=O)[C@@H](N)Cc1ccc(O)cc1)[C@@H](C)O)[C@@H](C)CC)[C@@H](C)CC)[C@@H](C)CC)C(=O)N[C@@H](CCC(=O)O)C(=O)N[C@@H](Cc1c[nH]c2ccccc12)C(=O)N[C@@H](CC(C)C)C(=O)N[C@@H](CC(C)C)C(=O)N[C@@H](C)C(=O)N[C@@H](CCC(N)=O)C(=O)NCC(=O)N1CCC[C@H]1C(=O)N[C@@H](CO)C(=O)N[C@@H](CO)C(=O)NCC(=O)N[C@@H](C)C(=O)N1CCC[C@H]1C(=O)N1CCC[C@H]1C(=O)N1CCC[C@H]1C(=O)N[C@@H](CO)C(=O)O` [SEQ ID NO: 11, H2N-Y-Aib-E-G-T-F-I-S-D-I-S-I-Aib-K[{AEEA}2-gGlu-C18OH]-DRIHQEEFIEWILAQGPSSGAPPPS-OH] (H-Y[Aib]EGTFISDLSI[Aib]K([AEEA-AEEA-γGlu-C18 diacid])DRIHQEEFIEWLLAQGPSSGAPPPS-OH), in data set [1], the “Relative purity loss” value was 6.1%. Further, in data set [2], the Soluble amount is over 9.8 mg/mL and the solubility at 24 h was over 9800 µg/mL. Further, the Emax in data set [3] came to 122%.
